From ChEMBL document CHEMBL1909046, “DrugMatrix in vitro pharmacology data” come the findings set out here.

Assay [1] concerns the target Glycine receptor (Rattus norvegicus, UniProt P07727+P20781+P22771+P24524). The class given is cell membranes, Wistar, Spinal cord, Membrane.
In assay [2] the target is Cytochrome P450 2D6 (Homo sapiens, UniProt P10635).
In assay [3] the target is T1, Cytochrome P450 1A2 (Homo sapiens, UniProt P05177).
T1 sequence (P05177 whole entry): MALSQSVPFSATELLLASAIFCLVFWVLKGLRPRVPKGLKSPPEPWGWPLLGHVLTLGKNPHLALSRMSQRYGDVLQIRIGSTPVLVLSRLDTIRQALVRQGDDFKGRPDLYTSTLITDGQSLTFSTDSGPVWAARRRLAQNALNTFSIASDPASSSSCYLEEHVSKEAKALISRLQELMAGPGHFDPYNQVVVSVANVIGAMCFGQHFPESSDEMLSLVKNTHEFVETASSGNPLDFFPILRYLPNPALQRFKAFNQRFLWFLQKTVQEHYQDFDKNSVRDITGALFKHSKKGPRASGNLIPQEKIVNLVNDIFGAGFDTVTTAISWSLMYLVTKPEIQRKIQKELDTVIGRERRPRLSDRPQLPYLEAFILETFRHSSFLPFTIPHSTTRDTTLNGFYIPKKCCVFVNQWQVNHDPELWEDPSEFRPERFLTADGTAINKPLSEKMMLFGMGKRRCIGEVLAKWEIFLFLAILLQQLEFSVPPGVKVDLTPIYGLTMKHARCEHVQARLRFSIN

The target of assay [4] is Voltage-gated inwardly rectifying potassium channel KCNH2 (Homo sapiens, UniProt Q12809).
Assay [5] concerns the target T2, Androgen receptor (Rattus norvegicus, UniProt P15207).
T2 sequence (P15207 whole entry): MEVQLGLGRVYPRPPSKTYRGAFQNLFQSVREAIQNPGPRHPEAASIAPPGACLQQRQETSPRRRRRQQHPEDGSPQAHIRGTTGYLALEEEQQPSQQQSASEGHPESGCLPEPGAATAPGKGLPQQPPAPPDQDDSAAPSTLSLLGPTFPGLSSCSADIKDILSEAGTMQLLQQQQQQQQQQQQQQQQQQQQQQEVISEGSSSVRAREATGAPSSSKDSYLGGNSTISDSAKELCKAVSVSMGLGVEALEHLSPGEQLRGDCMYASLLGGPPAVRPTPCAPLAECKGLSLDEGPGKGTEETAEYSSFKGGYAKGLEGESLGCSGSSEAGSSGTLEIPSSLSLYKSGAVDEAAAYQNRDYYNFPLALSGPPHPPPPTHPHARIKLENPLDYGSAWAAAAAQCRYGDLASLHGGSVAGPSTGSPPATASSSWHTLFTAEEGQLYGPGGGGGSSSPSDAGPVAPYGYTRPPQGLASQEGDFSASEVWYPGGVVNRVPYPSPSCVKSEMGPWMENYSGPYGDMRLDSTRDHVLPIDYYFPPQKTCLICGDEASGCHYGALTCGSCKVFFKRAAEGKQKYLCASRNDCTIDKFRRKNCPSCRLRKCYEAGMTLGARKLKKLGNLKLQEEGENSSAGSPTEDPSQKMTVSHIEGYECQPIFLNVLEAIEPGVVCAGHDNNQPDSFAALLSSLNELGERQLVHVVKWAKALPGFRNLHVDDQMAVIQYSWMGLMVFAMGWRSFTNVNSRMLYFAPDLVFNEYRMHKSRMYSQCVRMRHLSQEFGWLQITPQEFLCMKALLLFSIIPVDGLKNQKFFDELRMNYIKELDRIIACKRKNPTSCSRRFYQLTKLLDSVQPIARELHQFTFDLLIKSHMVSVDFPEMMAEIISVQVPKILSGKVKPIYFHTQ

Molecules are shown by their SMILES.

Sequence of Cytochrome P450 2D6 (P10635 whole entry): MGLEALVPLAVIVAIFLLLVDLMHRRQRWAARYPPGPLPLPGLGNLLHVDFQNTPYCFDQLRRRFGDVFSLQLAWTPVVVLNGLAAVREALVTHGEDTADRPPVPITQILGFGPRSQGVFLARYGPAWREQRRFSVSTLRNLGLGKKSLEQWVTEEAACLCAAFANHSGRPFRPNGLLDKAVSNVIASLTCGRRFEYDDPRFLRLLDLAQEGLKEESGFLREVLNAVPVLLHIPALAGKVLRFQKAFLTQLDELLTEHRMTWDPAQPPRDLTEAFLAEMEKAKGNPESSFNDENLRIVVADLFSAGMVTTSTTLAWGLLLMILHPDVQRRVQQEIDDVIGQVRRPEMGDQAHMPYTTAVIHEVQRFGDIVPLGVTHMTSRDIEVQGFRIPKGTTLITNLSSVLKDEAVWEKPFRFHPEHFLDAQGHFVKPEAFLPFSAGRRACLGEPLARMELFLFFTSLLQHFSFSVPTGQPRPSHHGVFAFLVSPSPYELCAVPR
Sequence of Voltage-gated inwardly rectifying potassium channel KCNH2 (Q12809 whole entry): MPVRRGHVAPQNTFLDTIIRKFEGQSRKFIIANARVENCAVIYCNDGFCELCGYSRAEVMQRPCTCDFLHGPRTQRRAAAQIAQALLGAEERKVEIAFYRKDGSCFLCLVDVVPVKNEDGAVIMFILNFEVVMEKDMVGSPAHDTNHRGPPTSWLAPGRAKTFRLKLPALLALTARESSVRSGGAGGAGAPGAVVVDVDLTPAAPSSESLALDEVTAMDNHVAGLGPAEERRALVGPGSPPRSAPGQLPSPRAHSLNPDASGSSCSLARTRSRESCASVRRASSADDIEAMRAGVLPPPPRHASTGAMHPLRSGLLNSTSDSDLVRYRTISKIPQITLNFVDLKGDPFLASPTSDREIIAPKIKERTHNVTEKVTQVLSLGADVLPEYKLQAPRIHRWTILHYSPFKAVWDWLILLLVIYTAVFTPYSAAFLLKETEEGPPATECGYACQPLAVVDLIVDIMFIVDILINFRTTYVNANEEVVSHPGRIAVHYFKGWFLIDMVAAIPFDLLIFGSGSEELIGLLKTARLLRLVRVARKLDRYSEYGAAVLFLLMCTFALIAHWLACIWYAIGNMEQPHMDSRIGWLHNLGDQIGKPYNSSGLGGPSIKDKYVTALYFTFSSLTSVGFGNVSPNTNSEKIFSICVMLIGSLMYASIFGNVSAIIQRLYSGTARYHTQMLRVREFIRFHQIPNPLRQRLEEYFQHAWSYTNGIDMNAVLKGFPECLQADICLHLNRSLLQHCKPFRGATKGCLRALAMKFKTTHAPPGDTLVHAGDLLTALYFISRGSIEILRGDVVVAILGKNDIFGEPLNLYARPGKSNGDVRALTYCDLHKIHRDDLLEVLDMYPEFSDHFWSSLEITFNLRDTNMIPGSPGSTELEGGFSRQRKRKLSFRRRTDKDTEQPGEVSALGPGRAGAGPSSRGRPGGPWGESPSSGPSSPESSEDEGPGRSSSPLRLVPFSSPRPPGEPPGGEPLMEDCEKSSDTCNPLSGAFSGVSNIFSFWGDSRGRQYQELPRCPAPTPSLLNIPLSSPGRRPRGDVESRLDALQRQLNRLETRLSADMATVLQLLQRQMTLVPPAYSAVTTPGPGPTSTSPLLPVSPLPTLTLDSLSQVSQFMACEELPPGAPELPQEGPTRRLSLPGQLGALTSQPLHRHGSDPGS
Sequence of Glycine receptor (P22771 whole entry): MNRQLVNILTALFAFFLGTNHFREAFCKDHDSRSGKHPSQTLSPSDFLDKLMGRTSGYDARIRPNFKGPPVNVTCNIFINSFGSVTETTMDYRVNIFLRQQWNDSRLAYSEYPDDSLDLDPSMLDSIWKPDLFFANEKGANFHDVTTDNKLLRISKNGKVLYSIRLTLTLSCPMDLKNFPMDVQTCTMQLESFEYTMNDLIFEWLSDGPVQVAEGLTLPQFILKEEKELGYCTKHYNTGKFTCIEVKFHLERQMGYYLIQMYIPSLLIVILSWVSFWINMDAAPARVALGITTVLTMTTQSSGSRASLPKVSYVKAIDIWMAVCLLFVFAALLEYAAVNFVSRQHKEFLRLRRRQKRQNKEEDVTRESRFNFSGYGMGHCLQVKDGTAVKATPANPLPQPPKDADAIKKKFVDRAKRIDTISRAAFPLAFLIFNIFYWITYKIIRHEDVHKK
Sequence of Glycine receptor (P24524 whole entry): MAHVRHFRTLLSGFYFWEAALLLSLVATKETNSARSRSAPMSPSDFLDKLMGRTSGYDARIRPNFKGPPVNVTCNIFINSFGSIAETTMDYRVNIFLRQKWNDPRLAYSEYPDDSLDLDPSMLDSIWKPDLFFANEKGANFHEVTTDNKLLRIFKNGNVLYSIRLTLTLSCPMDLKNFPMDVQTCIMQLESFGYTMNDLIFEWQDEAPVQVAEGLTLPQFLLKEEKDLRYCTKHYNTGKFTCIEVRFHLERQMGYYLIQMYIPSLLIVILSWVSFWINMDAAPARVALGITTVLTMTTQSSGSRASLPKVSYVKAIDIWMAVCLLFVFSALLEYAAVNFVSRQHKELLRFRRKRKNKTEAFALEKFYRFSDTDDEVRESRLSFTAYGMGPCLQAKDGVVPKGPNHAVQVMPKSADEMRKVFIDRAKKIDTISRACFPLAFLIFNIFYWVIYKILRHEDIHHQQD
Sequence of Glycine receptor (P07727 whole entry): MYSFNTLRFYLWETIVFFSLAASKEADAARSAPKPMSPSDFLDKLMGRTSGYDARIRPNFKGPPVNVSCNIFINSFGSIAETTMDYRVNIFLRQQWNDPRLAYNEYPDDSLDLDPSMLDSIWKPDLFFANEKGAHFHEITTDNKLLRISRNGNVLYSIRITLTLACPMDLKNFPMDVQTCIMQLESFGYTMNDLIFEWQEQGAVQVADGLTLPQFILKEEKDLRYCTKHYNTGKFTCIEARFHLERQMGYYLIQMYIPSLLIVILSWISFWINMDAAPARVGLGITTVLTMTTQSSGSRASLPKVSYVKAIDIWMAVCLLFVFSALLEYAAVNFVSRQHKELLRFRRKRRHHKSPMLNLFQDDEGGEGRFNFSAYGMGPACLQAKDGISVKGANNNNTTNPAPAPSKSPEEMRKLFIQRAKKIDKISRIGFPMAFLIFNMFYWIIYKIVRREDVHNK
Sequence of Glycine receptor (P20781 whole entry): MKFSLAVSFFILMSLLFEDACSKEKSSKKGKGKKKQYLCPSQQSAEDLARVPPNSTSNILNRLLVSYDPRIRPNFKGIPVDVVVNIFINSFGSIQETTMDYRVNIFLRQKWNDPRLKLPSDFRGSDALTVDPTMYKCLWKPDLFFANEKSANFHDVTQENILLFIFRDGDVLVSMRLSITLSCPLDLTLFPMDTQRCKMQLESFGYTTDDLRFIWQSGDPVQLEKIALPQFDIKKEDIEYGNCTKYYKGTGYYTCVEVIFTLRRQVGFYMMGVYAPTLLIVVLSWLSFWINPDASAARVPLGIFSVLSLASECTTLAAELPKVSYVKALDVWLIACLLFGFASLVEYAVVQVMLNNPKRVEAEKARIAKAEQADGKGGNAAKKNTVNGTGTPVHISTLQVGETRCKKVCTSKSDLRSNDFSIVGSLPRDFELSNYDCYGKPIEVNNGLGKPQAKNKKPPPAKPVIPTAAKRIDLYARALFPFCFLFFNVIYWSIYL

As for `CC[C@H](C)[C@H]1O[C@]2(C=C[C@@H]1C)C[C@@H]1C[C@@H](C/C=C(\C)[C@@H](O[C@H]3C[C@H](OC)[C@@H](O[C@H]4C[C@H](OC)[C@@H](O)[C@H](C)O4)[C@H](C)O3)[C@@H](C)/C=C/C=C3\CO[C@@H]4[C@H](O)C(C)=C[C@@H](C(=O)O1)[C@]34O)O2.CO[C@H]1C[C@H](O[C@H]2[C@H](C)O[C@@H](O[C@@H]3/C(C)=C/C[C@@H]4C[C@@H](C[C@]5(C=C[C@H](C)[C@@H](C(C)C)O5)O4)OC(=O)[C@@H]4C=C(C)[C@@H](O)[C@H]5OC/C(=C\C=C\[C@@H]3C)[C@]54O)C[C@@H]2OC)O[C@@H](C)[C@@H]1O` [ABAMECTIN], in assay [1], inhibition was half-maximal at 0.132 µM (IC50) and the affinity, expressed as Ki, was 0.075 µM. As for `Cc1c(OCC(F)(F)F)ccnc1C[S+]([O-])c1nc2ccccc2[nH]1` (configuration not stated) [LANSOPRAZOLE], inhibition in assay [2] was half-maximal at 5.31 µM (IC50). For the compound `O=c1cc(N2CCOCC2)oc2c(-c3ccccc3)cccc12` [LY-294002], the IC50 (in general, the concentration at which inhibition is half-maximal) in assay [3] came to 1 µM. In the case of `COc1cc2nc(N3CCN(C(=O)c4ccco4)CC3)nc(N)c2cc1OC` [PRAZOSIN], in assay [4], half-maximal inhibition (IC50) was put at 24.3 µM; the Ki (as a rule, the dissociation constant of the complex between target and ligand, obtained from inhibition or displacement) was determined as 19.9 µM. As to `COC1=C(OC)C(=O)C(CCCCCCCCCCO)=C(C)C1=O` [IDEBENONE], in assay [2], half-maximal inhibition (IC50) required 3 µM.

`COc1ccc2cc3[n+](cc2c1OC)CCc1cc2c(cc1-3)OCO2.[Cl-]` [BERBERINE CHLORIDE] registered an IC50 in assay [2] of 4.5 µM. Same read-out and setting: in the case of `OC(CCCN1CCCCC1)(c1ccccc1)c1ccccc1` [DIPHENIDOL] it was 0.326 µM. On to `Oc1c(Cl)cc(Cl)c(Cl)c1Cc1c(O)c(Cl)cc(Cl)c1Cl` [HEXACHLOROPHENE], for which, in assay [3], half-maximal inhibition (IC50) was put at 1.31 µM. In addition, in assay [5], the IC50 stood at 4.98 µM and the Ki was found to be 3.32 µM. In assay [5], `CCC(=O)O[C@]1(C(=O)CCl)[C@@H](C)C[C@H]2[C@@H]3CCC4=CC(=O)C=C[C@]4(C)[C@@]3(F)[C@@H](O)C[C@@]21C` [CLOBETASOL PROPIONATE] gave an IC50 of 3.78 µM and a Ki of 2.52 µM. For `CCN(CC)CCOCCC1=CCC2CC1C2(C)C` (configuration not stated) [MYRTECAINE], in assay [4], it took 5.9 µM to reach half-maximal inhibition (IC50) and the affinity, expressed as Ki, was 4.84 µM. Regarding `Cc1cc2c(OCC(CNC(C)(C)C)OC(=O)c3ccccc3)cccc2[nH]1` (configuration not stated) [BOPINDOLOL], 5.48 µM corresponded to half-maximal inhibition in assay [2] (IC50).
